Laboratory results taken from the supplement of paper PMC11451515.

Tested on: P12-Ichikawa
Assay: cell viability relative to DMSO control; higher = less cytotoxic
Conditions: 48 h
Summary of the method: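 NOMO1 or SEM cells were plated at 500 cells/well and P12-Ichikawa cells at 1000 cells/well in 1536-well plates (5 μl), after each leukemia line had been adapted for at least four passages in each medium. Pin dosing delivered library compounds in DMSO at 11 threefold concentrations, 47 μM to 0.79 nM. CellTiter-Glo One luminescence was read after 48 h at 37°C. Viability is reported as a per-plate percentage of DMSO wells, with cell-free wells as background.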

[1] = HPLM + 10% dialyzed FBS, 0.000781 µM
[2] = HPLM + 10% dialyzed FBS, 0.00234 µM
[3] = HPLM + 10% dialyzed FBS, 0.00702 µM
[4] = HPLM + 10% dialyzed FBS, 0.0211 µM
[5] = HPLM + 10% dialyzed FBS, 0.0632 µM
[6] = HPLM + 10% dialyzed FBS, 0.19 µM
[7] = HPLM + 10% dialyzed FBS, 0.569 µM
[8] = HPLM + 10% dialyzed FBS, 1.71 µM
[9] = HPLM + 10% dialyzed FBS, 5.12 µM
[10] = HPLM + 10% dialyzed FBS, 15.4 µM
[11] = HPLM + 10% dialyzed FBS, 46.1 µM
[12] = RPMI 5 mM glucose + 10% FBS, 0.000781 µM
[13] = RPMI 5 mM glucose + 10% FBS, 0.00234 µM
[14] = RPMI 5 mM glucose + 10% FBS, 0.00702 µM
[15] = RPMI 5 mM glucose + 10% FBS, 0.0211 µM
[16] = RPMI 5 mM glucose + 10% FBS, 0.0632 µM
[17] = RPMI 5 mM glucose + 10% FBS, 0.19 µM
[18] = RPMI 5 mM glucose + 10% FBS, 0.569 µM
[19] = RPMI 5 mM glucose + 10% FBS, 1.71 µM
[20] = RPMI 5 mM glucose + 10% FBS, 5.12 µM
[21] = RPMI 5 mM glucose + 10% FBS, 15.4 µM
[22] = RPMI 5 mM glucose + 10% FBS, 46.1 µM
[23] = RPMI 5 mM glucose + 10% dialyzed FBS, 0.000781 µM
[24] = RPMI 5 mM glucose + 10% dialyzed FBS, 0.00234 µM
[25] = RPMI 5 mM glucose + 10% dialyzed FBS, 0.00702 µM
[26] = RPMI 5 mM glucose + 10% dialyzed FBS, 0.0211 µM
[27] = RPMI 5 mM glucose + 10% dialyzed FBS, 0.0632 µM
[28] = RPMI 5 mM glucose + 10% dialyzed FBS, 0.19 µM
[29] = RPMI 5 mM glucose + 10% dialyzed FBS, 0.569 µM
[30] = RPMI 5 mM glucose + 10% dialyzed FBS, 1.71 µM
[31] = RPMI 5 mM glucose + 10% dialyzed FBS, 5.12 µM
[32] = RPMI 5 mM glucose + 10% dialyzed FBS, 15.4 µM
[33] = RPMI 5 mM glucose + 10% dialyzed FBS, 46.1 µM

Structure (SMILES) | cell viability [1] [%] | cell viability [2] [%] | cell viability [3] [%] | cell viability [4] [%] | cell viability [5] [%] | cell viability [6] [%] | cell viability [7] [%] | cell viability [8] [%] | cell viability [9] [%] | cell viability [10] [%] | cell viability [11] [%] | cell viability [12] [%] | cell viability [13] [%] | cell viability [14] [%] | cell viability [15] [%] | cell viability [16] [%] | cell viability [17] [%] | cell viability [18] [%] | cell viability [19] [%] | cell viability [20] [%] | cell viability [21] [%] | cell viability [22] [%] | cell viability [23] [%] | cell viability [24] [%] | cell viability [25] [%] | cell viability [26] [%] | cell viability [27] [%] | cell viability [28] [%] | cell viability [29] [%] | cell viability [30] [%] | cell viability [31] [%] | cell viability [32] [%] | cell viability [33] [%]
COc1cccc(OC)c1-c1cc(C(=O)NC2(C(=O)O)C3CC4CC(C3)CC2C4)nn1-c1ccnc2cc(Cl)ccc12 (configuration not stated) | 115 | 118 | 112 | 116 | 114 | 109 | 114 | 113 | 101 | 94.7 | 86.1 | 113 | 119 | 126 | 118 | 119 | 99.4 | 126 | 110 | 115 | 112 | 97.5 | 113 | 118 | 119 | 114 | 117 | 110 | 101 | 110 | 107 | 108 | 99.9
CCOc1cc(C(=O)Nc2ccc(Cl)c(-c3nc4ccccc4[nH]3)c2)cc(OCC)c1OCC | 74.3 | 82.5 | 89 | 91 | 91.9 | 92.9 | 98.9 | 96.1 | 92 | 94.1 | 84.6 | 81.6 | 89.8 | 86.7 | 88.4 | 95.8 | 92.9 | 86.7 | 86.5 | 86.6 | 95.4 | 60.8 | 78.9 | 76.7 | 84 | 86.5 | 85.8 | 81.2 | 88.3 | 82.8 | 79.8 | 81.1 | 53.6
Cc1ccc(C(=O)Nc2ccc([S+](=O)([O-])O)c3cc([S+](=O)([O-])O)cc([S+](=O)([O-])O)c23)cc1NC(=O)c1cccc(NC(=O)Nc2cccc(C(=O)Nc3cc(C(=O)Nc4ccc([S+](=O)([O-])O)c5cc([S+](=O)([O-])O)cc([S+](=O)([O-])O)c45)ccc3C)c2)c1 | 97.5 | 104 | 92.8 | 95.4 | 96.4 | 87.2 | 77.3 | 81.5 | 57.1 | 55.2 | 47 | 97.3 | 89.2 | 99.6 | 102 | 88.6 | 82.2 | 92.4 | 81.1 | 60.5 | 53.4 | 44.3 | 99.1 | 94.9 | 93.5 | 94 | 89.3 | 88.8 | 80 | 75.9 | 56.4 | 54 | 42.9
CCC(=O)O[C@@]1(CC[C@H]2[C@@H]3CCC/4=C/C(=O)CC[C@]4(C)[C@H]3CC[C@]12C)C(=O)CO | 99.2 | 107 | 104 | 115 | 110 | 116 | 125 | 107 | 98.9 | 83.7 | 83.1 | 91.6 | 122 | 109 | 113 | 112 | 118 | 109 | 109 | 106 | 78.9 | 69.1 | 102 | 103 | 108 | 109 | 98.6 | 117 | 116 | 106 | 110 | 79.9 | 63
